Where two headings read alike, the source gives them in different places. Numbered stars: 1 amine (or outer) side, 2 acyl side, 3 side chain; on linkers, the order of the positions; unused ones are H or OH. Bridge positions count the residues as written; N and C are the ends. Square brackets hold non-standard residues; d marks the D form. Peptide text beside a SMILES is read from it. * marks the point of attachment. TtdsdLys(DOTA)NH2 = NC(=O)[C@@H](CCCCNC(=O)CN1CCN(CC(=O)O)CCN(CC(=O)O)CCN(CC(=O)O)CC1)NC(=O)CCC(=O)NCCCOCCOCCOCCCN*; Acetyl(1-DOTA-4-piperidyl) = O=C(O)CN1CCN(CC(=O)O)CCN(CC(=O)N2CCC(CC(=O)*)CC2)CCN(CC(=O)O)CC1; DOTA = O=C(O)CN1CCN(CC(=O)O)CCN(CC(=O)*)CCN(CC(=O)O)CC1; Phe(4-Cl) = N[C@@H](Cc1ccc(Cl)cc1)C(=O)O; Phe(3-F) = N[C@@H](Cc1cccc(F)c1)C(=O)O; Arg(Me) = CNC(=N)NCCC[C@H](N)C(=O)O; X1 = O=C(CC1CCN([*:1])CC1)[*:2]; Lys(Me) = CNCCCC[C@H](N)C(=O)O; Tle = CC(C)(C)[C@H](N)C(=O)O; Nle = CCCC[C@H](N)C(=O)O; Deg = CCC(N)(CC)C(=O)O; Aib = CC(C)(N)C(=O)O; Guanidino = N=C(N)N*
Experiments:
[1] = target: T1, Fc-fusion protein of human PSMA (hPSMA-Fc) (Homo sapiens, UniProt Q04609); test: Surface plasmon resonance assay (Biacore T200, single cycle kinetic); type: binding; conditions: hPSMA-Fc, 25° C., read-out: pKD CAT (converted)
T1 construct: purchased Acro Biosystems PSA-H5264
T1 sequence (Q04609 44-750 limits assumed): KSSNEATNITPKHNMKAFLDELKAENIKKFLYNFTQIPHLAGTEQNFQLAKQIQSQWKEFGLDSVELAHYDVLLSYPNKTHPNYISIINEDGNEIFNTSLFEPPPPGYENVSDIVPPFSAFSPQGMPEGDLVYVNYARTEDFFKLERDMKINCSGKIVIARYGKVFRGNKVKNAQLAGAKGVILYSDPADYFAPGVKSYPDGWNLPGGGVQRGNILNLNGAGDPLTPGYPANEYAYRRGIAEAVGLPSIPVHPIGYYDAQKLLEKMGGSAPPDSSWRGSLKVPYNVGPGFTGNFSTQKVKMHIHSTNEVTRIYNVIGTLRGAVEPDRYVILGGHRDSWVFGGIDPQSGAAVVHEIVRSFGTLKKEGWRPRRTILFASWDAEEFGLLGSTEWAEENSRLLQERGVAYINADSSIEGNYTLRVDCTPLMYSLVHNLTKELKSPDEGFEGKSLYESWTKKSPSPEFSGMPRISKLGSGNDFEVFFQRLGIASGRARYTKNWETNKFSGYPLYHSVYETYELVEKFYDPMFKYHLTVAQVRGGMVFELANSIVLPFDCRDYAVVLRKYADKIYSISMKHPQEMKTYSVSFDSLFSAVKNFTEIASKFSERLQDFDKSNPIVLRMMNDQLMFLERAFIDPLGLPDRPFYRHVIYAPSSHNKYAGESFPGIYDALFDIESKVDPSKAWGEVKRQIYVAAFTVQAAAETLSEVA
Outline: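 hPSMA-Fc was captured (~1000 RU) on an Fc-binding-peptide CM5 chip, and compounds were run in single cycle kinetic mode at 25° C in HBST with 0.1% DMSO. Double-blank-corrected sensorgrams were fitted to a 1:1 Langmuir model to give KD, reported as pKD.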

[2] = target: T2, PSMA-expressing C4-2 cells (Homo sapiens, UniProt Q04609); test: FACS binding assay (competition with 50 nM PSM-0183); conditions: read-out: pIC50 [C4-2] CAT (converted)
T2 construct: PSMA-expressing C4-2 cells (ATCC, Cat. No. CRL-3314) were cultured in RPMI-1640; host or cells: C4-2 cells
T2 sequence (Q04609 whole entry): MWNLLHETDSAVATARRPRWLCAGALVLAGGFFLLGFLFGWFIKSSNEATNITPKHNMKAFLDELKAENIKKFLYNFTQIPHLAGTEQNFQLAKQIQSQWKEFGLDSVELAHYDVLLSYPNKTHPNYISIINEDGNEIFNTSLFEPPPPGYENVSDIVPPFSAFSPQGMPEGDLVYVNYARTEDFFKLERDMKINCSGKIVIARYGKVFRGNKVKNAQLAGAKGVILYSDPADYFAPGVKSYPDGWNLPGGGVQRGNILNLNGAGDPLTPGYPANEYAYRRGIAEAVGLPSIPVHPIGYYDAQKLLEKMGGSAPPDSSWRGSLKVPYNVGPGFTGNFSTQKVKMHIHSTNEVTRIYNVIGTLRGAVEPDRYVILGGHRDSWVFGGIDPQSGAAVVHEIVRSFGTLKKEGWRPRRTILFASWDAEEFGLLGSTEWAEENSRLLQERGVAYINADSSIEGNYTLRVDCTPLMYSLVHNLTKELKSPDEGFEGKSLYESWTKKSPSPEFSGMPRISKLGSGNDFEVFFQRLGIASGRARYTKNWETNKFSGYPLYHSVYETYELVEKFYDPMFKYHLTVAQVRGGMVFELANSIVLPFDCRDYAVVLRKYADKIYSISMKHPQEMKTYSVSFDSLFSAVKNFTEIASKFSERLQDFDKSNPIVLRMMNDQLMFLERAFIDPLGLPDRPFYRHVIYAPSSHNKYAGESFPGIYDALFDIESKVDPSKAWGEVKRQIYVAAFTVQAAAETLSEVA
Outline: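 C4-2 cells were incubated 1 h at 4 °C with 50 nM AF488-labelled peptide PSM-0183 plus increasing test compound concentrations, then washed twice in ice-cold buffer. Median fluorescence in the AF488 channel was read by flow cytometry. IC50/pIC50 was derived by 4PL fitting of MFI versus concentration.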

[3] = pKD category for PSMA SPR activity assay
[4] = pIC50 category of FACS binding, C4-2 cells
[5] = SPR, single cycle kinetic, category
[6] = FACS binding, C4-2 cells, competition with 50 nM PSM-0183, category

SMILES | Kd [1, 3] [nM] | IC50 [2, 4] [nM] | Kd [1, 5] [nM] | IC50 [2, 6] [nM] | other results
CC(=O)N[C@H](C(=O)NC(C)(C)C(=O)N[C@@H](Cc1ccccc1)C(=O)N[C@H]1CSSC[C@@H](C(=O)N[C@H](C(=O)N[C@H](C(=O)NCCCOCCOCCOCCCNC(=O)CCC(=O)N[C@H](CCCCNC(=O)CN2CCN(CC(=O)O)CCN(CC(=O)O)CCN(CC(=O)O)CC2)C(N)=O)[C@@H](C)O)C(C)(C)C)NC(=O)[C@H](CC(N)=O)NC(=O)C(C)(C)NC(=O)[C@H](CCC(N)=O)NC(=O)[C@H](CCCCN)NC1=O)[C@@H](C)O [PSM-0303, Ac-Thr-Aib-Phe-[Cys-Lys-Gln-Aib-Asn-Cys]-Tle-Thr-Ttds-lys(DOTA)-NH2] (Ac-T[Aib]FCKQ[Aib]NC[Tle]T-{TtdsdLys(DOTA)NH2}; disulfide 4-9) | – | – | – | – | Kd ([1]; PSMA SPR assay, pKD category): 12.6 to 126 nM; IC50 ([2]; FACS binding, PSMA-expressing C4-2 cells, pIC50 category): 200 to 1260 nM
CCCC[C@H](NC(=O)[C@@H]1CSSC[C@H](NC(=O)[C@H](Cc2ccccc2)NC(=O)[C@H](C)NC(=O)[C@H](C)NC(C)=O)C(=O)N[C@@H](CCCCN)C(=O)N[C@@H](CCCNC(=N)N)C(=O)N[C@@H](C)C(=O)N[C@@H](CC(N)=O)C(=O)N1)C(=O)N[C@H](C(=O)N[C@@H](CC(=O)O)C(N)=O)[C@@H](C)O [PSM-0491, Ac-Ala-Ala-Phe-[Cys-Lys-Arg-Ala-Asn-Cys]-Nle-Thr-Asp-NH2] (Ac-AAFCKRANC[Nle]TD-NH2; disulfide 4-9) | 126 to 501 | 200 to 1260 | – | – | –
CCC(CC)(NC(=O)[C@@H](NC(C)=O)[C@@H](C)O)C(=O)N[C@@H](Cc1ccccc1)C(=O)N[C@H]1CSSC[C@@H](C(=O)N[C@H](C(=O)N[C@H](C(N)=O)[C@@H](C)O)C(C)(C)C)NC(=O)[C@H](CC(N)=O)NC(=O)C(C)(C)NC(=O)[C@H](CCCNC(=N)N)NC(=O)[C@H](CCCCN)NC1=O [PSM-0187, Ac-Thr-Deg-Phe-[Cys-Lys-Arg-Aib-Asn-Cys]-Tle-Thr-NH2] (Ac-T[Deg]FCKR[Aib]NC[Tle]T-NH2; disulfide 4-9) | – | – | < 12.6 | < 200 | –
CC(=O)N[C@H](C(=O)NC(C)(C)C(=O)N[C@@H](Cc1ccc(Cl)cc1)C(=O)N[C@H]1CSSC[C@@H](C(=O)N[C@H](C(=O)N[C@H](C(N)=O)[C@@H](C)O)C(C)(C)C)NC(=O)[C@H](CC(N)=O)NC(=O)C(C)(C)NC(=O)[C@H](CCC(=O)NC(=N)N)NC(=O)[C@H](CCCCN)NC1=O)[C@@H](C)O [PSM-0189, Ac-Thr-Aib-Pcf-[Cys-Lys-Gln(Gu)-Aib-Asn-Cys]-Tle-Thr-NH2] (Ac-T[Aib][Phe(4-Cl)]CKE(Guanidino)[Aib]NC[Tle]T-NH2; disulfide 4-9) | – | – | < 12.6 | < 200 | –
CNCCCC[C@@H]1NC(=O)[C@@H](NC(=O)[C@H](Cc2cccc(F)c2)NC(=O)C(C)(C)NC(=O)[C@@H](NC(=O)CC2CCN(C(=O)CN3CCN(CC(=O)O)CCN(CC(=O)O)CCN(CC(=O)O)CC3)CC2)[C@@H](C)O)CSSC[C@@H](C(=O)N[C@H](C(N)=O)C(C)(C)C)NC(=O)[C@H](CC(N)=O)NC(=O)C(C)(C)NC(=O)[C@H](CCCNC(=N)NC)NC1=O [PSM-0553, DOTA-Cmp-Thr-Aib-Mff-[Cys-Lys(Me)-Arg(Me)-Aib-Asn-Cys]-Tle-NH2] ({DOTA}-[X1]T[Aib][Phe(3-F)]C[Lys(Me)][Arg(Me)][Aib]NC[Tle]-NH2; disulfide 5-10) | 12.6 to 126 | < 200 | – | – | –

Now from value to compound, other results behind:

Kd [1, 3] [nM] | IC50 [2, 4] [nM] | Kd [1, 5] [nM] | IC50 [2, 6] [nM] | SMILES | other results
12.6 to 126 | < 200 | – | – | CC(=O)N[C@H](C(=O)NC(C)(C)C(=O)N[C@@H](Cc1ccccc1)C(=O)N[C@H]1CSSC[C@@H](C(=O)N[C@H](C(=O)N[C@H](C(N)=O)[C@@H](C)O)C(C)(C)C)NC(=O)[C@H](CC(N)=O)NC(=O)[C@H](CCCCNC(=O)CC2CCN(C(=O)CN3CCN(CC(=O)O)CCN(CC(=O)O)CCN(CC(=O)O)CC3)CC2)NC(=O)[C@H](CCCNC(=N)N)NC(=O)[C@H](CCCCN)NC1=O)[C@@H](C)O [PSM-0415, Ac-Thr-Aib-Phe-[Cys-Lys-Arg-Lys(DOTA-Cmp)-Asn-Cys]-Tle-Thr-NH2] (Ac-T[Aib]FCKRK(Acetyl(1-DOTA-4-piperidyl))NC[Tle]T-NH2; disulfide 4-9) | –
– | – | 12.6 to 126 | 200 to 1260 | CC(=O)NC(=N)NCCC[C@@H]1NC(=O)[C@H](CCCCN)NC(=O)[C@@H](NC(=O)[C@H](Cc2ccc(Cl)cc2)NC(=O)C(C)(C)NC(=O)CC2CCN(C(=O)CN3CCN(CC(=O)O)CCN(CC(=O)O)CCN(CC(=O)O)CC3)CC2)CSSC[C@@H](C(=O)N[C@H](C(=O)N[C@H](C(N)=O)[C@@H](C)O)C(C)(C)C)NC(=O)[C@H](CC(N)=O)NC(=O)C(C)(C)NC1=O [PSM-0223, DOTA-Cmp-Aib-Pcf-[Cys-Lys-Arg(Ac)-Aib-Asn-Cys]-Tle-Thr-NH2] ({DOTA}-[X1][Aib][Phe(4-Cl)]CKR(Ac)[Aib]NC[Tle]T-NH2; disulfide 4-9) | –
